Patent publication US8816092B2, “Indazole derivative or salt thereof and production intermediate thereof, and antioxidant using same, and use of indazole derivative or salt thereof” (Ube Industries, Ltd., priority 2010, dated 2014)
Counter-ions that a name gives are not always drawn.

Test system: rat liver microsome lipid peroxidation
Experiment: Antioxidation action test in rat liver microsome (microsome lipid peroxidation measuring system, TBARS generation)
Type: biochemical
Details: for antioxidation action: microsome lipid peroxidation measuring system using a rat liver microsome, result in words; for IC50: rat liver microsome, NADPH 500 μM + ferrous sulfate 50 μM, 20 minutes reaction, 37° C., n=2, nonlinear regression, read-out: IC50 (TBARS generation suppressing action)
Procedure: 1. Antioxidation Action Test in Rat Liver Microsome
Using a microsome lipid peroxidation measuring system, an antioxidation action of a test compound was evaluated. This test quantifies a thiobarbituric acid reaction substance (TBARS) that is generated by a lipid peroxidation reaction caused by adding nicotinamide adenine dinucleotide phosphoric acid and ferrous sulfate to a microsome. To this system, a test compound is added, and a TBARS generation suppressing action by the test compound is evaluated as an antioxidation action. This method is a general method for measuring an antioxidation action of a compound or the like (Reference document: Yakugaku Zasshi 119, 93-99 (1999), Biochimica et Biophysics Acta, 1046, (1990) 207-213, Chemistry & Biology Experiment line 2, lipid peroxidation experimental method (Hirokawa shoten)).
A buffer solution was prepared by mingling to achieve 25 mM tris(hydroxymethyl)aminomethane (Tris) (pH 7.4) and 150 mM potassium chloride (KCl).
Ferrous sulfate (FeSO4.7H2O) was dissolved in distilled water to prepare a 5 mM solution.
Nicotinamide adenine dinucleotide phosphoric acid (NADPH) was dissolved in distilled water to prepare a 50 mM solution.
Ethylenediaminetetraacetic acid (EDTA) was dissolved in distilled water to prepare a 200 mM solution.
Five μL of a commercially available rat liver microsome [XENOTECH, catalog No. R1000 (20 mg protein/mL)] was used.
As a test compound, Compound A which is an inventive compound [1-[6-(4-cyclopropyl-1H-indazol-5-yl)pyridin-3-yl]-1-ethylenepropylamine hydrochloride (Example compound 2)], and Compound B having a similar compound structure [1-[6-(4-cyclopropyl-1H-indazol-5-yl)pyridin-3-yl]-1-methyl ethyl amine hydrochloride (synthesized according to a method described in European Patent Publication No. 1679308)] were used. Ten mM test compound solutions were prepared by dissolving 1.3 mg of Compound A in 0.315 mL of dimethyl sulfoxide (DMSO), and dissolving 2.15 mg of Compound B in 0.554 mL of dimethyl sulfoxide (DMSO).
[drawing 8] (Evaluation Method) 1) A test compound solution (5 μL) was put into a reaction tube. […] 7) A thiobarbituric acid reaction substance (TBARS) generation value in the reaction completed solution was measured using a commercially available TBARS measuring kit [Cayman, Catalog No. 10009055].
As a non-lipid peroxidation reaction group, a test was conducted by adding distilled water in place of nicotinamide adenine dinucleotide phosphoric acid and ferrous sulfate, and a TBARS generation value was measured. The number of examples of each group is n=2, and the TBARS generation suppressing rate (%) was calculated from an average value of n=2 according to the following formula 1, and IC50 of the test compound was measured by nonlinear regression of statistical analysis software (EXSAS). […]

IC50 [µM] | Structure (SMILES) | antioxidation action
3.8 | CCC(N)(CC)c1ccc(-c2ccc3[nH]ncc3c2C2CC2)nc1 [Compound A, 1-[6-(4-cyclopropyl-1H-indazol-5-yl)pyridin-3-yl]-1-ethylpropylamine hydrochloride] | exhibited a strong antioxidation action
> 100 | CC(C)(N)c1ccc(-c2ccc3[nH]ncc3c2C2CC2)nc1 [Compound B, 1-[6-(4-cyclopropyl-1H-indazol-5-yl)pyridin-3-yl]-1-methyl ethyl amine hydrochloride] | did not exhibit a strong antioxidation action
